Experimental data from patent US20220313629A1, “TRANSIENT POTENTIAL MELASTATIN 8 (TRPM8) ANTAGONISTS AND RELATED METHODS” (MARSHALL UNIVERSITY RESEARCH CORPORATION, priority 2019, published 2022).
Where two headings read alike, the source gives them in different places.

Assays:
Assay type in all cases: cell-based
TRPM8 = TRPM8 (Homo sapiens, UniProt Q7Z2W7); assay: TRPM8 antagonist activity by Fura-2 Ca2+ imaging in HEK-293 cells stably expressing human TRPM8; conditions: for IC50: read-out: Functional Activity hTRPM8 potency IC50 ± SEM
Chain of TRPM8 (Q7Z2W7 whole entry): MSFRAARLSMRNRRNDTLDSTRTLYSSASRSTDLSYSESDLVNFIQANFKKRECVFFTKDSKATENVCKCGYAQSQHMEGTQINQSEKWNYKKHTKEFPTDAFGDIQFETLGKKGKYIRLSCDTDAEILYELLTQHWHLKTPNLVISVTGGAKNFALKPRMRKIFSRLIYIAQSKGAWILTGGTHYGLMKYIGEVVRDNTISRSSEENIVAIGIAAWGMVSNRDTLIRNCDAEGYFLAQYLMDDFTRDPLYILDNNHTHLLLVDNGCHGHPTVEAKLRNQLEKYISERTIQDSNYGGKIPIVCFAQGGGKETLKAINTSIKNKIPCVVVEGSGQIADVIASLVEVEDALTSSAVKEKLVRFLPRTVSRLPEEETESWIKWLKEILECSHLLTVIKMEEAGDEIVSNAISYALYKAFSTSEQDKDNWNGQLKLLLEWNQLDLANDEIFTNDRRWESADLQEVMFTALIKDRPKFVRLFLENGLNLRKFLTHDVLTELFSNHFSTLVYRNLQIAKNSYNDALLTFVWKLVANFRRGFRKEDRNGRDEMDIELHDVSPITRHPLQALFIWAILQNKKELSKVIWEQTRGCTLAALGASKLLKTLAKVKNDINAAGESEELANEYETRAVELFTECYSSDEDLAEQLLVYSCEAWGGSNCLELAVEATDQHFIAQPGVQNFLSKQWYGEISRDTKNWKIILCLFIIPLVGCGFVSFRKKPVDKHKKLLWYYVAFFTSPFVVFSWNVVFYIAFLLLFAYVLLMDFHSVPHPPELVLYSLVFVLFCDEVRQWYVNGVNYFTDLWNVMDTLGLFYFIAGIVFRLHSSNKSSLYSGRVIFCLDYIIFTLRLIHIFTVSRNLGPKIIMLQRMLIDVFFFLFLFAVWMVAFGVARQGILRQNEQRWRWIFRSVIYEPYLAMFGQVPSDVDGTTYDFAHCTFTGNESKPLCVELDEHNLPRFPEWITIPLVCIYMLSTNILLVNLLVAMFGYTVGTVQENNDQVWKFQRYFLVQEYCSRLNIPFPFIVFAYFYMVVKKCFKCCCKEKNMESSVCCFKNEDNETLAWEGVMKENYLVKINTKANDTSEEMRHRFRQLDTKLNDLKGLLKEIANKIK

human TRPA1 = human TRPA1 (Homo sapiens, UniProt O75762); assay: TRPA1 agonist and antagonist Ca2+ flux assay (FLIPR, Fluo-8) in HEK293 cells stably expressing human TRPA1
Chain of human TRPA1 (O75762 whole entry): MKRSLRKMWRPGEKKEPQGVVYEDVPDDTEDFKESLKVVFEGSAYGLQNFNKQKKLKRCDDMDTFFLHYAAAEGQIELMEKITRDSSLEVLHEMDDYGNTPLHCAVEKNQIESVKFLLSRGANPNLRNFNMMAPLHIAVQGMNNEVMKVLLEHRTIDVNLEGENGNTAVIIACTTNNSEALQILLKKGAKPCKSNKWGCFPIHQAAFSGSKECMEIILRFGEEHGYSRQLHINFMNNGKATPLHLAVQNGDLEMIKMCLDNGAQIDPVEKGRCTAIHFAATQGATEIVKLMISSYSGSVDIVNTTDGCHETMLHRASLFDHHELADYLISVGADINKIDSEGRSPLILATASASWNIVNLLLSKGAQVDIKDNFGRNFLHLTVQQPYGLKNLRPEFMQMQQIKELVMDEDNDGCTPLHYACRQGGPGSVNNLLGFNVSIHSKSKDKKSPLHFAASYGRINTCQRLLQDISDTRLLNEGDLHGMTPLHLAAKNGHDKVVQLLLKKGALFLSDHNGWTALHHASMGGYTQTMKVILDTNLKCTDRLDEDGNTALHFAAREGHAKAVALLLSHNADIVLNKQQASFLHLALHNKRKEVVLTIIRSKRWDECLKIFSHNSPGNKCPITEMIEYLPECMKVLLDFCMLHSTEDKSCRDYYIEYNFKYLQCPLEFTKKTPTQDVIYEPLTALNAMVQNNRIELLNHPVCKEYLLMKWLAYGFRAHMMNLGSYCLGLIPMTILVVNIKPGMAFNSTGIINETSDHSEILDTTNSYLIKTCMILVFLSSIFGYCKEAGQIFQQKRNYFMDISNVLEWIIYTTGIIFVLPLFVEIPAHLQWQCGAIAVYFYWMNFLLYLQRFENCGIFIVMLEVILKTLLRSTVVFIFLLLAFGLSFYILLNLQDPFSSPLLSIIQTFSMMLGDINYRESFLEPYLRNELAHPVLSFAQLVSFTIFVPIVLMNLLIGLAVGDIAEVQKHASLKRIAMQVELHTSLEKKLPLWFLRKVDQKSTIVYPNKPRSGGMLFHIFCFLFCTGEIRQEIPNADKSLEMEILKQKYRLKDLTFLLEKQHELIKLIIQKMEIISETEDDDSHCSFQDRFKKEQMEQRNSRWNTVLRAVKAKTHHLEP

human TRPV1 = human TRPV1 (Homo sapiens, UniProt Q8NER1); assay: TRPV1 agonist and antagonist Ca2+ flux assay (FLIPR, Fluo-8) in HEK293 cells stably expressing human TRPV1
Chain of human TRPV1 (Q8NER1 whole entry): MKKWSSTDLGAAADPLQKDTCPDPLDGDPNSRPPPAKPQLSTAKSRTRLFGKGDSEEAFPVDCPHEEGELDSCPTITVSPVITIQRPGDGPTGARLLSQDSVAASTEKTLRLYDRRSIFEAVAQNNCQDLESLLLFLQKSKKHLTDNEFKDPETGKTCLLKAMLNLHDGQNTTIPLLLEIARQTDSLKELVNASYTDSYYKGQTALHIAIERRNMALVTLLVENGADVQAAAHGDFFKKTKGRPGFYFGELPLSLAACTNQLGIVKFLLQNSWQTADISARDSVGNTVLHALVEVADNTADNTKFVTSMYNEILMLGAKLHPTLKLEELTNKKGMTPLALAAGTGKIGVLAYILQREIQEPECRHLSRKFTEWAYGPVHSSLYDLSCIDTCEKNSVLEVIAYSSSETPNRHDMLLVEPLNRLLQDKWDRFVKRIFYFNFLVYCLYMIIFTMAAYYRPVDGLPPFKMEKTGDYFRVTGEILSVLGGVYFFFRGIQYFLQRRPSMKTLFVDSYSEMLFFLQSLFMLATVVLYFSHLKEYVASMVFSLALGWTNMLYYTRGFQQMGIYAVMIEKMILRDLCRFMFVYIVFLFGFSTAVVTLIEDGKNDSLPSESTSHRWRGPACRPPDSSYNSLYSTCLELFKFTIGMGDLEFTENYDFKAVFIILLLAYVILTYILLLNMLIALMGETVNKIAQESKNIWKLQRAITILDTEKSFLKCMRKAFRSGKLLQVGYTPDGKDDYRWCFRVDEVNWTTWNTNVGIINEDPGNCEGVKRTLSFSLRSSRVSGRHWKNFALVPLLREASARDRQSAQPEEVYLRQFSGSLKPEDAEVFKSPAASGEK

[1] = inhibition of icilin (500 nM)-evoked Ca2+ entry, HEK-293 cells stably expressing hTRPM8, mean ± SEM, three independent experiments
[2] = HEK293; read-out: hTRPA1 % Inhibition (n = 3)
[3] = tested at 100 nM; normalized to Emax of AITC (300 μM)
[4] = tested at 1 μM; normalized to Emax of AITC (300 μM)
[5] = HEK293; read-out: hTRPV1 % Inhibition (n = 3)
[6] = tested at 100 nM; normalized to Emax of capsaicin (3 μM)
[7] = tested at 1 μM; normalized to Emax of capsaicin (3 μM)
[8] = HEK293, read-out: hTRPA1 % Inhibition (n = 3)
[9] = HEK293, read-out: hTRPV1 % Inhibition (n = 3)
[10] = at concentrations 13- to 25-fold higher than hTRPM8 IC50

Compound: CC(C)[C@@H]1CC[C@@H](C)C[C@H]1NC(=O)c1ccc(-c2ccccc2)cc1 [Compound 1, reference compound]
- IC50 (TRPM8): 16 ± 1 µM

Compound: O=C(NC1CCCCC1)c1ccc(-c2ccccc2)cc1 [Compound 3, N-cyclohexyl-[1,1′-biphenyl]-4-carboxamide]
- IC50 (TRPM8; [1]): 49 ± 1 µM

Compound: O=C(NC1CCCCCC1)c1ccc(-c2ccccc2)cc1 [Compound 5, N-cycloheptyl-[1,1′-biphenyl]-4-carboxamide]
- IC50 (TRPM8; [1]): 0.052 ± 0.001 µM
- inhibition at 0.1 µM (human TRPA1; [2]): -2 ± 5%
- inhibition at 1 µM (human TRPA1; [2]): 4 ± 5%
- hTRPA1 % Activation (n = 3-5) (human TRPA1; [3]): 0.1 ± 0.7%
- hTRPA1 % Activation (n = 3-5) (human TRPA1; [4]): 0.8 ± 0.5%
- inhibition at 0.1 µM (human TRPV1; [5]): -3 ± 4%
- inhibition at 1 µM (human TRPV1; [5]): 24 ± 1%
- hTRPV1 % Activation (n = 3) (human TRPV1; [6]): 0.0 ± 1.0%
- hTRPV1 % Activation (n = 3) (human TRPV1; [7]): 0.6 ± 1.5%

Compound: O=C(NC1CC2CCC(C2)C1)c1ccc(-c2ccccc2)cc1 (stereo not drawn) [Compound 6, N-(bicyclo[3.2.1]octan-3-yl)-[1,1′-biphenyl]-4-carboxamide]
- IC50 (TRPM8; [1]): 0.692 ± 0.001 µM

Compound: O=C(NC1CCCCCCC1)c1ccc(-c2ccccc2)cc1 [Compound 7, N-cyclooctyl-[1,1′-biphenyl]-4-carboxamide]
- IC50 (TRPM8; [1]): 0.062 ± 0.001 µM
- inhibition at 0.1 µM (human TRPA1; [2]): -13 ± 4%
- inhibition at 1 µM (human TRPA1; [2]): 0.2 ± 6%
- hTRPA1 % Activation (n = 3-5) (human TRPA1; [3]): −1.0 ± 0.1%
- hTRPA1 % Activation (n = 3-5) (human TRPA1; [4]): −1.5 ± 0.9%
- inhibition at 0.1 µM (human TRPV1; [5]): -4 ± 4%
- inhibition at 1 µM (human TRPV1; [5]): 14 ± 4%
- hTRPV1 % Activation (n = 3) (human TRPV1; [6]): −1.9 ± 0.7%
- hTRPV1 % Activation (n = 3) (human TRPV1; [7]): −3.2 ± 0.6%

Compound: O=C(NC1CCCc2ccccc21)c1ccc(-c2ccccc2)cc1 (stereo not drawn) [Compound 9, N-(1,2,3,4-tetrahydronaphthalen-1-yl)-[1,1′-biphenyl]-4-carboxamide]
- loss of potency vs. Compound 8 (TRPM8; icilin Ca2+ assay): 3 fold
- IC50 (TRPM8): 55 ± 1 µM

Compound: O=C(NC1CCc2ccccc2C1)c1ccc(-c2ccccc2)cc1 (stereo not drawn) [Compound 11, N-(1,2,3,4-tetrahydronaphthalen-2-yl)-[1,1′-biphenyl]-4-carboxamide]
- decrease of hTRPM8 potency (vs. Compound 10) (TRPM8; icilin Ca2+ assay): 9 fold
- IC50 (TRPM8): 0.052 ± 0.001 µM
- inhibition at 0.1 µM (human TRPA1; [8]): 3 ± 6%
- inhibition at 1 µM (human TRPA1; [8]): 4 ± 1%
- hTRPA1 % Activation (n = 3-5) (human TRPA1; [3]): −0.1 ± 0.5%
- hTRPA1 % Activation (n = 3-5) (human TRPA1; [4]): −0.8 ± 0.6%
- inhibition at 0.1 µM (human TRPV1; [9]): -3.1 ± 0.6%
- inhibition at 1 µM (human TRPV1; [9]): 13 ± 3%
- hTRPV1 % Activation (n = 3) (human TRPV1; [6]): −1.8 ± 0.9%
- hTRPV1 % Activation (n = 3) (human TRPV1; [7]): −0.7 ± 1.5%

Compound: O=C(NC1CCC2(CCCCC2)CC1)c1ccc(-c2ccccc2)cc1 [Compound 13, N-(spiro[5.5]undecan-3-yl)-[1,1′-biphenyl]-4-carboxamide]
- IC50 (TRPM8; [1]): 0.04 ± 0.001 µM
- inhibition at 0.1 µM (human TRPA1; [2]): -1 ± 5%
- inhibition at 1 µM (human TRPA1; [2]): -7 ± 9%
- effect on hTRPA1-mediated responses (intrinsic and antagonist activity) (human TRPA1; [10]): do not affect
- hTRPA1 % Activation (n = 3-5) (human TRPA1; [3]): 0.2 ± 0.5%
- hTRPA1 % Activation (n = 3-5) (human TRPA1; [4]): −0.2 ± 1.1%
- inhibition at 0.1 µM (human TRPV1; [5]): -3 ± 4%
- inhibition at 1 µM (human TRPV1; [5]): 5 ± 2%
- effect on hTRPV1-mediated responses (intrinsic and antagonist activity) (human TRPV1; [10]): do not affect
- hTRPV1 % Activation (n = 3) (human TRPV1; [6]): −1.0 ± 0.4%
- hTRPV1 % Activation (n = 3) (human TRPV1; [7]): 0.7 ± 0.2%

Compound: O=C(NC12CC3CC(CC(C3)C1)C2)c1ccc(-c2ccccc2)cc1 [Compound 15, N-(adamantan-1-yl)-[1,1′-biphenyl]-4-carboxamide]
- IC50 (TRPM8; [1]): 0.016 ± 0.001 µM
- inhibition at 0.3 µM (human TRPA1; [2]): -7 ± 7%
- effect on hTRPA1-mediated responses (intrinsic and antagonist activity) (human TRPA1; [10]): do not affect
- hTRPA1 % Activation (n = 3-5) (human TRPA1; tested at 30 nM; normalized to Emax of AITC (300 μM)): −2.6 ± 0.5%
- hTRPA1 % Activation (n = 3-5) (human TRPA1; tested at 300 nM; normalized to Emax of AITC (300 μM)): −1.5 ± 0.4%
- inhibition at 0.03 µM (human TRPV1; [5]): -6 ± 5%
- inhibition at 0.3 µM (human TRPV1; [5]): 3 ± 4%
- effect on hTRPV1-mediated responses (intrinsic and antagonist activity) (human TRPV1; [10]): do not affect
- hTRPV1 % Activation (n = 3) (human TRPV1; tested at 30 nM; normalized to Emax of capsaicin (3 μM)): 1.0 ± 0.2%
- hTRPV1 % Activation (n = 3) (human TRPV1; tested at 300 nM; normalized to Emax of capsaicin (3 μM)): 1 ± 2%
